From article PMC11242853, “The Antimicrobial Activity of Human Defensins at Physiological Non-Permeabilizing Concentrations Is Caused by the Inhibition of the Plasma Membrane H^+-ATPases” (International Journal of Molecular Sciences, 2024)
“Also recorded” adds a separate entry of the source. Where no end group is shown, it is not given here.

What was measured:
[1] = test system: Candida albicans ATCC 10231; test: Antimicrobial spread-plate (CFU) killing assay, C. albicans; type: cell-based; settings: for candidacidal activity (comparison among defensins): 0–2 μM, 90 min at 37 °C, Tris buffer; for effect of high extracellular K+ on candidacidal activity: 50 mM KCl, defensins at NPIC, hLf 5 μM, BM2 0.25 μM, nystatin 50 μM; for non-permeabilizing inhibitory concentration (NPIC), C. albicans: antimicrobial concentration (≤10% viable cells) that permeabilized ≤10% of cells, 10^6 cells/mL, Tris buffer pH 7.4, 90 min at 37 °C, from Figure 1 data, duplicates of three experiments; for effect of piericidin A on candidacidal activity: cells preincubated 15 min at 37 °C with 32 µM piericidin A, then peptides (NPIC) 90 min; for effect of oligomycin A on candidacidal activity: preincubated 15 min at 37 °C with 16 μg/mL oligomycin A, peptides at NPIC
Protocol: (§1) To determine whether the above microbicidal concentrations exert a permeabilizing effect on fungal and bacterial membranes, the influx of the fluorescent nucleic acid-binding dye propidium iodide (PI) in cells incubated with the peptides was assessed. In cells, dye uptake reflects membrane permeabilization, as PI itself cannot permeate through an intact phospholipid bilayer. […] To select an antimicrobial but non-permeabilizing concentration of each peptide for further assays, we defined as a non-permeabilizing inhibitory concentration (NPIC) the antimicrobial inhibitory concentration (≤10% viable cells) that permeabilized ≤ 10% of cells incubated (90 min at 37 °C) in buffer solution.
(§2) Microbial susceptibility to the peptides was determined in a spread-plate assay as described previously. Briefly, cell suspensions (10^6 cells/mL) in Tris buffer (10 mM Tris-HCl, pH 7.4) were incubated for 90 min at 37 °C with 2-fold serial peptide dilutions. Peptide concentrations ranged from 0 to 2 μM. After incubation, the number of viable cells was determined by plating aliquots (100 μL) in duplicate on plates (SDA for C. albicans, TSA for P. aeruginosa, and M17G agarified medium for L. lactis) that had been dried for 30 min at room temperature in a laminar flow hood. Plates were incubated for 24–48 h at 30 °C (C. albicans and L. lactis) or 24 h at 37 °C (P. aeruginosa). Dilutions yielding 50–200 colonies were counted. Cell viability values, expressed as colony-forming units (CFUs), were calculated relative to the incubation without added peptides and represent the means ± standard deviation (SD) from duplicates of three independent experiments. For inhibition assays, unless otherwise noted, cell suspensions were preincubated (15 min at 37 °C) with the appropriate inhibitor prior to the addition of peptides, but the inhibitor was present throughout the incubation period with the peptide (90 min at 37 °C). Other specific experimental conditions are described as appropriate. In some experiments, the concentrations of human lactoferrin against C. albicans (5 μM), P. aeruginosa (1 μM), and L. lactis (0.065 μM) were used in the control assays. In various viability assays, BM2 peptide (0.25 μM), CCCP (50 μM), colistin (4 μg/mL), nystatin (50 μM), oligomycin A (16 μg/mL), piericidin A (32 μM), and TEA (10 mM) were used.

C. albicans cells [2] = test: Extracellular potassium measurement (K+-efflux, ICP-MS); type: cell-based, Candida albicans; settings: Table 2; no reference given
Protocol: Potassium measurements were performed via inductively coupled plasma mass spectrometry using an Agilent 7700x ICP-MS (Agilent Technologies, Santa Clara, CA, USA). C. albicans cells were cultured in SDB for 16–20 h at 30 °C. The cells were then subcultured in the same media to the mid-logarithmic growth phase and rapidly washed in sterile, deionized, double-distilled water. The cells (10^7 cells/mL) were immediately incubated with the peptides (NPIC) for 90 min at 37 °C. The tubes were centrifuged at 1100× g for 10 min and the supernatants were collected and stored at 4 °C until analysis. The percentage of cytosolic potassium released from cell suspensions treated with nystatin (50 μM) was determined in positive control assays. Total cellular K^+-content (100% value) was measured in the supernatant of cell suspensions previously treated with 0.5% (v/v) HClO4 alone, heated for 1 h at 95 °C, and centrifuged to remove cell debris. Results are expressed as the percentage (means ± SD) of K^+-release relative to the total cellular K^+-content from duplicates of at least three independent assays.

[3] = set-up: method as in 19 sources, ref 24; PMID 3290255; doi:10.1172/JCI113527; 24. Lehrer R.I. Ganz T. Szklarek D. Selsted M.E. Modulation of the in vitro candidacidal activity of human neutrophil defensins by target cell metabolism and divalent cations J. Clin. Invest. 1988 81 || [47]; PMID 11083633; doi:10.1128/AAC.44.12.3310-3316.2000; 47. Edgerton M. Koshlukova S.E. Araujo M.W. Patel R.C. Dong J. Bruenn J.A. Salivary histatin 5 and human neutrophil defensin 1 kill Candida albicans via shared pathways Antimicrob. Agents Chemother. 2 ||| ref 20 = [20]; PMID 17074797; doi:10.1128/AAC.00478-06; 20. Vylkova S. Nayyar N. Li W. Edgerton M. Human beta-defensins kill Candida albicans in an energy-dependent and salt-sensitive manner without causing membrane disruption Antimicrob. Agents Chemother. ||| ref 24, 62 (HNP-1); 62, 63 (HNP-4); 20 (hBD-2); 12, 20 (hBD-3); 34, 35, 64 cidal and 65, 66 static (lactoferrin) ||| ref 26 (HNP-1); 12 (HNP-4); 11 (hBD-2, hBD-3); 43, 67 (lactoferrin) ||| ref 14 (HNP-1); 23 (HNP-4); Yes 11, 13 / No 20 (hBD-2); No 20 / Yes 11 (hBD-3); 31, 34, 42 (lactoferrin) ||| ...; settings: cited from earlier work; for candidacidal activity on C. albicans cells treated with CCCP: CCCP at pH 7.4; for Cell death inhibitors, intracellular: Azide: 24 (HNP-1); for Cell death inhibitors, intracellular: Azide / Cell death inhibitors, extracellular: Ca^2+ or Mg^2+: 20 (hBD-2, hBD-3); for Cidal/static: 62 (HNP-1), 62, 63 (HNP-4), 12, 20 (hBD-3), 34, 35, 64 cidal and 65, 66 static (lactoferrin); for Cidal/static / Cell death inhibitors, extracellular: K^+ or Na^+: 20 (hBD-2); for Antimicrobial range: Gm+ Gram-positive bacteria, Gm− Gram-negative bacteria, F fungi, V viruses, P protozoa, no reference given; for Membrane permeabilization: ref 14 (HNP-1), 23 (HNP-4), Yes 11, 13 / No 20 (hBD-2), No 20 / Yes 11 (hBD-3), 31, 34, 42 (lactoferrin); for Cell death inhibitors, extracellular: Ca^2+ or Mg^2+: 43 (lactoferrin); for Membrane depolarization: ref 26 (HNP-1), 12 (HNP-4), 11 (hBD-2, hBD-3), 43, 67 (lactoferrin); for Cell death inhibitors, extracellular: K^+ or Na^+: ref 68 (HNP-1), 69 (HNP-4), No 11, 12 / Yes 20 (hBD-3), 31, 36, 43 (lactoferrin)
C. albicans cells [4] = test: Total cellular ATP (BacTiter-Glo); type: cell-based, Candida albicans; settings: for increase in ATP levels compared to the untreated control: defensins at NPIC, human lactoferrin 5 μM, BM2 peptide 0.25 μM, 10^6 cells/mL, BacTiter-Glo luminescence; for ATP increment: Table 2, no reference given
Protocol: Total ATP was measured using the BacTiter-Glo^TM Microbial Cell Viability Assay (Promega Co., Madison, WI, USA) according to the manufacturer’s instructions. […] Aliquots (100 µL) were incubated (90 min at 37 °C) with human defensins (NPICs). Human lactoferrin (5 μM) or BM2 peptide (0.25 μM) was used as positive controls. One hundred microliters of the incubation mixture was transferred to an opaque 96-well plate, mixed with an equal volume of BacTiter-Glo^TM reagent, and incubated for 15 min in the dark. The reagent uses a thermostable luciferase to generate luminescence in an ATP-dependent manner. The emitted luminescence was detected using a Varioskan Flash multimode reader (Thermo Scientific, Waltham, MA, USA) with a 10 s shaking and 1 s integration time. A calibration curve was generated for each experiment with ATP standards ranging from 1 to 1000 nM. All assays were performed at least three times in duplicate.

[5] = test system: Pseudomonas aeruginosa PAO1; test: Antimicrobial spread-plate (CFU) killing assay, P. aeruginosa; type: cell-based; settings: for non-permeabilizing inhibitory concentration (NPIC), P. aeruginosa: antimicrobial concentration (≤10% viable cells) that permeabilized ≤10% of cells, 10^6 cells/mL, Tris buffer pH 7.4, 90 min at 37 °C, from Figure 1 data, duplicates of three experiments
Protocol: as §1, §2

Substance	candidacidal activity (comparison among defensins) [1]	effect of high extracellular K+ on candidacidal activity [1]	Cell death inhibitors, extracellular: Tok1p inhibitors (TEA) ([1]; Table 2, no reference given)	non-permeabilizing inhibitory concentration (NPIC), C. albicans [1]	effect of piericidin A on candidacidal activity [1]	effect of oligomycin A on candidacidal activity [1]	Partial K^+-efflux (C. albicans cells [2])	candidacidal activity on C. albicans cells treated with CCCP [3]	Cell death inhibitors, intracellular: Azide ([3]; Table 2, 34 (lactoferrin))	Cidal/static ([3]; Table 2)	Antimicrobial range ([3]; Table 2)	Membrane permeabilization ([3]; Table 2)	Cell death inhibitors, extracellular: Ca^2+ or Mg^2+ ([3]; Table 2, ref 24 (HNP-1))	Membrane depolarization ([3]; Table 2)	Cell death inhibitors, extracellular: K^+ or Na^+ ([3]; Table 2)	increase in ATP levels compared to the untreated control (C. albicans cells [4])	non-permeabilizing inhibitory concentration (NPIC), P. aeruginosa [5]	ATP increment (C. albicans cells [4])	also measured
HNP-1: human α-defensin, UniProtKB P59665, 30 amino acids, three disulfide bonds; purchased from PeptaNova	highest candidacidal activity	significantly protected	Yes	0.25 µM	significantly less susceptible	significantly (p < 0.001) less susceptible	Yes	protected	Yes	Cidal	Gm +,Gm −,F,V,P	Yes	Yes (Ca^2+); also recorded: No (Mg^2+)	Yes	Yes	~ 7 fold	0.5 µM	–	Cell death inhibitors, intracellular: Oligomycin A ([1]; Table 2, no reference given): Yes; Cell death inhibitors, intracellular: Piericidin A ([1]; Table 2, no reference given, tested on C. albicans and P. aeruginosa in this study): Yes; ATP-efflux ([3]; Table 2): Yes; Cell death inhibitors, intracellular: Antimycin A (+SHAM) ([3]; Table 2): Yes; Cell death inhibitors, intracellular: CCCP or DNP ([3]; Table 2, ref 24 (HNP-1), 34 (lactoferrin)): Yes; Cell death inhibitors, extracellular: Anoxia ([3]; Table 2, ref 24 (HNP-1), 34, 35 (lactoferrin)): Yes; ATP increment ([3]; Table 2, ref 47 (HNP-1), 35 (lactoferrin)): Yes; effect of piericidin A on bactericidal activity, P. aeruginosa ([5]; cells pretreated with 32 µM piericidin A, defensins at NPIC): significantly (p < 0.001) protected; effect of CCCP on bactericidal activity, P. aeruginosa ([5]; preincubated 15 min at 37 °C with 50 µM CCCP at pH 7.4, peptides at NPIC): significant reduction
HNP-4: human α-defensin, UniProtKB P12838, 33 amino acids; purchased from PeptaNova (VCSCRLVFCRRTELRVGNCLIGGVSFTYCCTRV; ends and bridges not checked; cysteine pairing not given here; UniProt P12838 64-96, looked up)	–	significantly protected	Yes [69] ND Yes ND ND ND ND ND ND	0.25 µM	significantly less susceptible	significantly (p < 0.001) less susceptible	Yes	–	–	Cidal	Gm +,Gm −,F,V	Yes	–	Yes	–	~ 8 fold	0.25 µM	Yes	–
hBD-3: human β-defensin, UniProtKB Q5U7J2, 45 amino acids; purchased from PeptaNova (GIINTLQKYYCRVRGGRCAVLSCLPKEEQIGKCSTRGRKCCRRKK; Beta-defensin 103; UniProt P81534 23-67, looked up)	highest candidacidal activity	significantly protected	Yes	0.125 µM	significantly less susceptible	significantly (p < 0.001) less susceptible	Yes	protected	Yes	Cidal	Gm +,Gm −, F,V,P	–	No	Yes	No and Yes	~ 6 fold	0.25 µM	Yes	pseudomonacidal activity (comparison among defensins) ([5]; 0–2 μM, 90 min at 37 °C, Tris buffer): most potent pseudomonacidal activity
